From patent US11116757B2 (priority 2015, dated 2021)
Like-named read-outs stand apart in the source and are kept apart here.

Molecular target: DCN1-UBC12 interaction (Homo sapiens (Human), UniProt Q96GG9)
Assay: biochemical
Type: binding
Settings: read-out: TR-FRET IC50

Sequence of DCN1-UBC12 interaction (Q96GG9 60-248 limits assumed): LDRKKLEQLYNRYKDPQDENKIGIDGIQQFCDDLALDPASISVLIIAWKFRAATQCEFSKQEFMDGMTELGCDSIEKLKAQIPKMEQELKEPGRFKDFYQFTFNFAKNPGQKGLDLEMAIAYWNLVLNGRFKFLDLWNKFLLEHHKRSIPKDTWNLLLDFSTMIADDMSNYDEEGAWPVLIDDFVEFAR

Row | Compound | IC50 | other results
1 | C=CC(=O)NCCN(C(=O)Nc1cccc(C(F)(F)F)c1)C1CCN(C(C)CCC)CC1 (stereo not shown) [A187] | 33.8 µM | –
2 | O=C(NCc1cccc(C(F)(F)F)c1)C1CCN(Cc2ccccc2)CC1 [B41] | > 63.9 µM | –
3 | CCCC(C)N1CCC(N(Cc2ccccc2)C(=O)Nc2cc(Br)ccc2Cl)CC1 (stereo not shown) [A267] | > 66.9 µM | –
4 | CCCC(C)N1CCC(N(Cc2ccccc2)C(=O)Nc2cccc(OC)c2)CC1 (stereo not shown) [A131] | 3.15 µM | –
5 | CCCC(C)N1CCC(N(Cc2ccccc2)C(=O)Nc2ccc(S(=O)(=O)NC(C)=O)cc2)CC1 (stereo not shown) [A283] | > 72.1 µM | –
6 | O=C(Nc1ccccc1Cl)NC1CCN(Cc2ccccc2)CC1 [B55] | > 67.6 µM | –
7 | 1-Benzyl-1-(1-Isopentylpiperidin-4-yl)-3-(3-(Trifluoromethyl)Phenyl)Urea [A90] | 1.13 µM | –
8 | O=C(Nc1cccc(C(F)(F)F)c1)N(Cc1ccccc1)C1CCNCC1 [A261, 1-Benzyl-1-(Piperidin-4-yl)-3-(3-(Trifluoromethyl)Phenyl)Urea] | > 63.3 µM | –
9 | Cc1ccc(CN2CCC(N(Cc3ccccc3)C(=O)Nc3cc(F)cc(C(F)(F)F)c3)CC2)s1 [A227] | > 27 µM | –
10 | CCCC(C)N1CCC(N(Cc2ccccc2)C(=O)Nc2cc(OC)c(OC)c(OC)c2)CC1 (stereo not shown) [A246] | > 55.6 µM | –
11 | O=C(Nc1ccc(I)cc1)C1CCN(C(=O)c2ccco2)CC1 [C30] | – | IC50 (Table 4, commercial compounds): > 67.6 µM
12 | CCCC(C)N1CCC(N(Cc2ccccc2)C(=O)Nc2cccc3cnccc23)CC1 (stereo not shown) [A244] | > 53.6 µM | –
13 | O=C(Nc1cc(F)cc(C(F)(F)F)c1)N(Cc1ccccc1)C1CCN(Cc2cccc(N3CCCC3)c2)CC1 [A202] | > 19.4 µM | –
14 | CCN(CC)CCN(CC)C(=O)c1cnn(-c2nccc(-c3cccs3)n2)c1C(C)C [E5] | – | IC50 (Table 6, commercial compounds): 17.4 µM
15 | O=C(Nc1cccc(C(F)(F)F)c1)N[C@H]1CCN(Cc2ccccc2)C[C@@H]1O [A185] | 30 µM | –
16 | CCCC(C)N1CCC(N(Cc2ccccc2)C(=O)Nc2ccc(Cl)nc2)CC1 (stereo not shown) [A277] | > 68.8 µM | –
17 | COc1ccc(NC(=O)N(Cc2ccco2)C2CCN(C(C)=O)CC2)cc1 [B70] | > 67.6 µM | –
18 | CCN1CCC(N(Cc2ccco2)C(=O)Nc2cccc(C(F)(F)F)c2)CC1 [B3] | 3.85 µM | –
19 | CCN(CC)CCNC(=O)c1cnn(-c2nccc(-c3cccs3)n2)c1C(C)C [E19] | – | IC50 (Table 6, commercial compounds): 42.1 µM
20 | O=C(Nc1ccc(F)cc1)C1CCN(C(=O)c2ccco2)CC1 [C31] | – | IC50 (Table 4, commercial compounds): > 67.6 µM
21 | O=C(Nc1cccc(C(F)(F)F)c1)N1CCN(C(c2ccccc2)c2ccccc2)CC1 [B40] | > 62.8 µM | –
22 | CCCC(C)N1CCC(N(Cc2ccccc2)C(=O)Nc2ccc(F)cc2)CC1 (stereo not shown) [A269] | > 67.2 µM | –
23 | CC(=O)N1CCC(N(Cc2ccco2)C(=O)Nc2ccc(Br)cc2)CC1 [B73] | > 67.6 µM | –

Row | Compound | IC50 | other results
24 | CCCC(C)N1CCC(N(Cc2ccccc2)C(=O)Nc2c(F)cc(F)cc2F)CC1 (stereo not shown) [A272] | > 67.5 µM | –
25 | 1-Benzyl-1-(1-(Propylsulfonyl)Piperidin-4-yl)-3-(3-(Trifluoromethyl)Phenyl)Urea [A79] | 0.81 µM | –
26 | CCCC(C)N1CCC(N(Cc2ccccc2)C(=O)Nc2cc(Cl)c(Cl)cc2F)CC1 (stereo not shown) [A78] | 0.801 µM | –
27 | CCOc1ccc(NC(=O)N(Cc2ccco2)C2CCN(CC)CC2)cc1 [B80] | > 67.6 µM | –
28 | CCCC(C)N1CCC(N(Cc2ccccc2)C(=O)Nc2cnc(Cl)nc2)CC1 (stereo not shown) [A241] | > 52.4 µM | –
29 | CCCC(C)N1CCC(N(Cc2ccccc2)C(=O)Nc2cccc(C)c2C)CC1 (stereo not shown) [A271] | > 67.5 µM | –
30 | CCCC(C)N1CCC(N(Cc2ccccc2)C(=O)Nc2ccc(OC)c(Cl)c2)CC1 (stereo not shown) [A138] | 4.05 µM | –
31 | Cc1cc(C)cc(C(=O)N2CCC(c3nc4ccccc4s3)CC2)c1 [D10] | 25.4 µM | –
32 | CC(=O)O[C@H]1CN(Cc2ccccc2)CC[C@@H]1NC(=O)Nc1cccc(C(F)(F)F)c1 [A160] | 7.89 µM | –
33 | O=C(Nc1cc(C(F)(F)F)ccc1Cl)NC1CCN(Cc2ccccc2)CC1 [B101] | > 69.8 µM | –
34 | CCN1CCC(N(Cc2ccco2)C(=O)Nc2ccc(C)c(F)c2)CC1 [B11] | 23.8 µM | –
35 | O=C(Nc1ccc(C(F)(F)F)cc1)N1CCN(C/C=C/c2ccccc2)CC1 [C13] | – | IC50 (Table 4, commercial compounds): > 66.3 µM
36 | CSc1cccc(NC(=O)NC2CCN(Cc3ccccc3)CC2)c1 [B44] | > 64.5 µM | –
37 | Cc1cccc(C(=O)NC2C(=O)Nc3c(c(C)nn3C)C2c2ccc(C(C)(C)C)cc2)c1 (stereo not shown) [F13] | – | IC50 (Table 7, commercial compounds): > 67.6 µM
38 | CCCC(C)N1CCC(N(Cc2ccccc2)C(=O)Nc2cccc(-c3ccccc3)c2)CC1 (stereo not shown) [A129] | 2.67 µM | –
39 | CCCC(C)N1CCC(N(Cc2ccccc2)C(=O)Nc2cccc(OCc3ccccc3)c2)CC1 (stereo not shown) [A94] | 1.29 µM | –
40 | CCN1CCC(N(Cc2ccco2)C(=O)Nc2ccc(F)c(Cl)c2)CC1 [B104] | > 70.9 µM | –
41 | CCCC(C)N1CCC(N(Cc2ccccc2)C(=O)Nc2ccc3cn[nH]c3c2)CC1 (stereo not shown) [A108] | 2.11 µM | –
42 | CCCC(C)N1CCC(N(Cc2ccccc2)C(=O)Nc2ccc(C(=O)OC)cc2Cl)CC1 (stereo not shown) [A189] | 37.8 µM | –
43 | C=CC(=O)NCc1ccccc1CN(C(=O)Nc1cccc(C(F)(F)F)c1)C1CCN(C(C)CCC)CC1 (stereo not shown) [drawing 846] | < 0.01 µM | –
44 | 1-(1-Acryloylpiperidin-4-yl)-1-Benzyl-3-(3-(Trifluoromethyl)Phenyl)Urea [A65] | 0.446 µM | –
45 | CCCC(C)N1CCC(N(Cc2ccc3c(c2)OCO3)C(=O)Nc2ccc(Cl)c(Cl)c2)CC1 (stereo not shown) [A9] | 0.0788 µM | –
46 | O=C(Nc1cccc(F)c1)NC1CCN(Cc2ccccc2)CC1 [B64] | > 67.6 µM | –

Row | Compound | IC50 | other results
47 | C=CS(=O)(=O)NCc1cccc(CN(C(=O)Nc2cccc(C(F)(F)F)c2)C2CCN(C(C)CCC)CC2)c1 (stereo not shown) [drawing 849] | < 0.01 µM | –
48 | CC(=O)Nc1cccc(NC(=O)C2CCN(C(=O)c3ccco3)CC2)c1 [C39] | – | IC50 (Table 4, commercial compounds): > 67.6 µM
49 | COc1cc(CN2CCC(NC(=O)Nc3ccccc3)CC2)cc(OC)c1OC [B45] | > 65.5 µM | –
50 | O=C(Nc1cc(F)cc(C(F)(F)F)c1)N(Cc1ccccc1)C1CCN(Cc2cnccn2)CC1 [A226] | > 26.6 µM | –
51 | Cc1nn(C)c2c1C(c1cccc(F)c1)C(NC(=O)c1ccc(Cl)cc1)C(=O)N2 (stereo not shown) [F10] | – | IC50 (Table 7, commercial compounds): > 67.6 µM
52 | Cc1cccc(C2c3c(C)nn(C)c3NC(=O)C2NC(=O)c2ccccc2)c1 (stereo not shown) [F33] | – | IC50 (Table 7, commercial compounds): > 80.3 µM
53 | COc1ccc(OC)c(NC(=O)C2CCN(C(C)=O)CC2)c1 [C33] | – | IC50 (Table 4, commercial compounds): > 67.6 µM
54 | CC(C)N1CCN(C(=O)c2cnn(-c3nccc(-c4cccs4)n3)c2C2CC2)CC1 [E43] | – | IC50 (Table 6, commercial compounds): > 67.6 µM
55 | Cc1ccc(CN(C(=O)Nc2ccccc2Br)C2CCN(Cc3ccccc3)CC2)o1 [B91] | > 67.6 µM | –
56 | CCCN1CCN(C(=O)c2cnn(-c3nccc(-c4cccs4)n3)c2C)CC1 [E60] | – | IC50 (Table 6, commercial compounds): > 68 µM
57 | CCN(CC)CCN(C)C(=O)c1cnn(-c2nccc(-c3cccs3)n2)c1C1CC1 [E34] | – | IC50 (Table 6, commercial compounds): > 67.6 µM
58 | CCN1CCC(N(Cc2ccco2)C(=O)Nc2ccc(OC)cc2)CC1 [B79] | > 67.6 µM | –
59 | COc1ccc(C(=O)NCC(=O)N2CCC(c3nc4ccccc4s3)CC2)cc1OC [D26] | > 67.6 µM | –
60 | Cc1cc(C)cc(C(=O)N2CCCC(c3nc4ccccc4s3)C2)c1 (stereo not shown) [D32] | > 67.6 µM | –
61 | O=C(NC1CCN(Cc2ccc(F)cc2)CC1)C(F)(F)F [A305] | > 92.7 µM | –
62 | CCCC(C)N1CCC(N(Cc2ccccc2)C(=O)Nc2ccc(F)c(-c3nc4ccccc4o3)c2)CC1 (stereo not shown) [A268] | > 67.1 µM | –
63 | CCCC(C)N1CCC(N(Cc2ccccc2)C(=O)Nc2ccccc2N2CCOCC2)CC1 (stereo not shown) [A243] | > 52.8 µM | –
64 | O=C(Nc1cccc2ccccc12)NC1CCN(Cc2ccccc2)CC1 [B39] | > 61.8 µM | –
65 | O=C(Nc1ccc2c(c1)OCO2)NC1CCN(Cc2ccccc2)CC1 [B22] | > 103 µM | –
66 | CCCC(C)N1CCC(N(Cc2ccccc2)C(=O)Nc2ccc(C(=O)OC)cc2)CC1 (stereo not shown) [A163] | 8.42 µM | –
67 | O=C(NCCN1CCN(Cc2ccccc2C(F)(F)F)CC1)Nc1ccccc1 [B48] | > 67 µM | –
68 | CCCC(C)N1CCC(N(Cc2ccccc2)C(=O)Nc2ccc(OC)cc2C)CC1 (stereo not shown) [A275] | > 68.6 µM | –
69 | CCCC(C)N1CCC(N(Cc2ccccc2)C(=O)Nc2ccc(OC)cc2)CC1 (stereo not shown) [A158] | 7.67 µM | –

Row | Compound | IC50 | other results
70 | 1-Benzyl-1-(1-(Cyclohexylmethyl)Piperidin-4-yl)-3-(3-(Trifluoromethyl)Phenyl)Urea [A149] | 5.25 µM | –
71 | CC(=O)Nc1ccc(NC(=O)C2CCN(C(=O)c3cccs3)CC2)cc1 [C35] | – | IC50 (Table 4, commercial compounds): > 67.6 µM
72 | O=C(Nc1cccc(C(F)(F)F)c1)C1CCN(C(=O)/C=C/c2ccccc2)CC1 [C57] | – | IC50 (Table 4, commercial compounds): > 67.6 µM
73 | Cc1ccc(NC(=O)C2CCN(C(=O)c3ccccc3C)CC2)cc1Cl [C14] | – | IC50 (Table 4, commercial compounds): > 67.6 µM
74 | O=C(c1cccc(C(F)(F)F)c1)N(Cc1ccccc1)C1CC2CCC(C1)N2Cc1ccccc1 (stereo not shown) [A234] | > 40.6 µM | –
75 | CCCC(C)N1CCC(N(Cc2ccccc2)C(=O)Nc2ccn(-c3ccc(Cl)cc3)n2)CC1 (stereo not shown) [A153] | 6.47 µM | –
76 | Cc1nn(-c2ccccc2)c2c1C(c1ccc(C(F)(F)F)cc1)C(NC(=O)c1ccccc1)C(=O)N2 (stereo not shown) [F19] | – | IC50 (Table 7, commercial compounds): > 67.6 µM
77 | CCN1CCN(C(=O)c2cnn(-c3nccc(-c4cccs4)n3)c2C(C)C)CC1 [E4] | – | IC50 (Table 6, commercial compounds): 13.1 µM
78 | O=C(c1ccccc1O)N1CCC(c2nc3ccccc3s2)CC1 [D29] | > 67.6 µM | –
79 | O=C(Nc1ccccc1)NC1CCN(Cc2ccccc2)CC1 [B20, 1-(1-Benzylpiperidin-4-yl)-3-Phenylurea] | < 0.0041 µM | –
80 | Cc1ccc(CN2CCC(N(Cc3ccccc3)C(=O)Nc3cc(F)cc(C(F)(F)F)c3)CC2)o1 [A219] | > 24.2 µM | –
81 | COc1ccc(CN(C(=O)Nc2ccccc2Cl)C2CCN(C(C)=O)CC2)cc1 [B13] | 37.5 µM | –
82 | O=C(c1ccc(F)cc1)N1CCC(c2nc3ccccc3s2)CC1 [D15] | > 46.2 µM | –
83 | CCCC(C)N1CCC(N(Cc2ccccc2)C(=O)Nc2cccc(Cl)c2F)CC1 (stereo not shown) [A62] | 0.385 µM | –
84 | COc1cccc(NC(=O)NC2CCN(C(C)C)CC2)c1 [B60] | > 67.6 µM | –
85 | Cc1nc(NC(=O)NC2CCN(Cc3ccccc3)CC2)nn1C [B25] | > 16.3 µM | –
86 | CCN(CCN(C)C)C(=O)c1cnn(-c2ncc(C)c(-c3cccs3)n2)c1C1CC1 [E53] | – | IC50 (Table 6, commercial compounds): > 67.6 µM
87 | CCCC(C)N1CCC(N(Cc2ccccc2)C(=O)Nc2ccc3ncccc3c2)CC1 (stereo not shown) [A207] | > 21 µM | –
88 | CCOC(=O)CCNC(=O)c1cnn(-c2ncc(C)c(-c3cccs3)n2)c1C [E56] | – | IC50 (Table 6, commercial compounds): > 67.6 µM
89 | O=C(Nc1ccc(F)cc1)NC1CCN(Cc2ccccc2)CC1 [B43] | > 64.5 µM | –
90 | O=C(Nc1cccc(F)c1)C1CCN(C(=O)c2cnn(-c3ccccc3)c2-n2cccc2)CC1 [C50] | – | IC50 (Table 4, commercial compounds): > 67.6 µM
91 | O=C(Nc1cc(F)cc(C(F)(F)F)c1)N(Cc1ccccc1)C1CCN(CCCc2ccccc2)CC1 [A133] | 3.21 µM | –
